Experimental data published in US20120295893A1, “COMPOSITIONS AND METHODS OF COUNTERACTING RESIDUAL SEDATIVE EFFECTS OF SLEEP/ HYPNOTIC DRUGS” (COERULEUS LTD., priority 2009, published 2012).
Several values for one entry are separate records, joined by “and”; a condition that tells them apart may be missing. Equal entries are not always repeated.

Assays:
[1] = tested on: sleep/hypnotic effect of zolpidem or brotizolam; test: Clinical study: immediate Word Recall Test (iWRT); conditions: Baseline sleep (after hypnotic, before oral spray)
[2] = Clinical study: vital signs and safety assessments; conditions: Baseline sleep (after hypnotic, before oral spray); for Pulse rate: 10 subjects per hypnotic
[3] = tested on: sleep/hypnotic effect of zolpidem or brotizolam; test: Clinical study: digit symbol substitution test (DSST); conditions: Baseline sleep (after hypnotic, before oral spray)
[4] = tested on: sleep/hypnotic effect of zolpidem or brotizolam; test: Clinical study: Profile Of Mood States (POMS) Brief form; conditions: Baseline sleep (after hypnotic, before oral spray)
[5] = tested on: sleep/hypnotic effect of zolpidem or brotizolam; test: Clinical study: Visual Analogue Scale (sleepiness/vigilance, ability to focus, effectiveness); conditions: Baseline sleep (after hypnotic, before oral spray)
[6] = tested on: Sprague-Dawley™ (SD) rats; test: Preliminary phase: induction of 'Sleep' by IV diazepam (dose finding); conditions: for mortality after diazepam injection: FDC = Found Dead in the Cage
[7] = tested on: diazepam-induced sedative-hypnotic effects; test: Main phase: Sleeping Time (regaining of Righting Reflex) after diazepam induction; type: in vivo, rat; conditions: IV, two administrations at 2 min interval after diazepam
Method: (§1) The main phase consisted of 4 groups of n=8 male and female SD rats/group. Induction of sedative-hypnotic effects, as measured by Sleeping Time and locomotor activity, was carried out by two intravenous injections of diazepam at an interval of approximately 2 minutes. The Test, Reference and Control Items were administered twice at interval of 2 minutes as well, about 5 minutes after the second dose of diazepam. Both Test Items FLUMUP-F22 (F22, Table 26 below) and FLUMUP-F26 (F26, Table 26 below) were administered by the sublingual route at a constant dose volume of 0.1 ml/animal per administration. An additional group was administered with FLUMUP Placebo under identical experimental conditions and served as a Control group. A fourth group was subjected to IV injection of the Reference Item under identical experimental conditions. Animals were placed in the activity cage immediately following arousal from ‘Sleep’ or 10 minutes post the second dose of the respective treatment if arousal was not evident.
Males were injected with an initial dose level of 15 mg/kg and approximately 2 minutes later an addition of 5 mg/kg was administered. […]
Sleeping time was determined for all animals.
Evaluation was based on the relative recorded changes in the measured Sleeping Time and locomotor activity, obtained from the Test & Reference Items-treated animals vs. those of the Control Item group. […]

[8] = tested on: diazepam-induced sedative-hypnotic effects; test: Main phase: locomotor activity in activity cage after diazepam induction; type: in vivo, rat
Method: as §1
Males were injected with an initial dose level of 15 mg/kg and approximately 2 minutes later an addition of 5 mg/kg was administered. Females were injected with an initial dose level of 20 mg/kg and approximately 2 minutes later an addition of 5 mg/kg.
(i) The Test and Control Items were administered by the sublingual route twice at an interval of approximately 2 minutes about 5 minutes post the second injection of diazepam. (ii) The Reference Item flumazenil USP was injected twice intravenously at an interval of approximately 2 minutes about 5 minutes post the second injection of diazepam. The Test, Reference and Control Items were administered at a constant dose volume of 0.1 ml/animal per administration over approximately 15 seconds.
Each rat was placed in the center of a special designed commercial activity cage, measuring 40×40×46 cm (TruScan Photo Beam Activity System-Coulbourn Instruments, Allentown, Pa., USA) for a duration of 15 minutes.
Evaluation was based on the relative recorded changes in the measured Sleeping Time and locomotor activity, obtained from the Test & Reference Items-treated animals vs. those of the Control Item group. Data analysis of all measurable parameters was performed by the use of the following methods in order to determine significance of treatment effects: Software: GraphPad Instat®—Version 3.02 (Statistical Method: 1-Way ANOVA; Dunnett Multiple Comparisons Test for locomotor activity parameters; Kruskal-Wallis Test for Sleeping Time data) Microsoft” Excel 2000.

[9] = in vivo, po; cited from earlier work

Row | SMILES | iWRT [1] | Diastolic BP [2] | Systolic BP [2] | Pulse rate [2] | DSST [3] | POMS- fatigue [4] | POMS-Alertness [4] | Effectiveness [5] | Focus ability [5] | Vigilance [5] | other results
1 | Cc1nnc2n1-c1sc(Br)cc1C(c1ccccc1Cl)=NC2 [Brotizolam] | 7.6 ± 1.3 | 69.0 ± 2.8 | 116.9 ± 4.8 | 69.8 ± 1.8 | 76.3 ± 7.7 | 7.2 ± 1.2 | 4.3 ± 1.0 | 2.3 ± 0.3 | 2.4 ± 0.4 | 2.3 ± 0.4 | 
2 | CN1C(=O)CN=C(c2ccccc2)c2cc(Cl)ccc21 [Diazepam] |  |  |  |  |  |  |  |  |  |  | additional duration of 'Sleep' after supplement dose ([6]; female rat, 20 mg/kg then supplement 5 mg/kg IV): 1180 s; mortality after diazepam injection ([6]; female rat, single dose 25 mg/kg IV, 25 mg/kg): died immediately following injection and FDC; mortality after diazepam injection ([6]; female rat, single dose 25 mg/kg IV, listed as diazepam, 25 mg/kg): death; duration of induced 'Sleep' ([6]; female rats, diazepam 20 mg/kg IV, individual animals): 240 s and 180 s; additional duration of 'Sleep' after supplement dose ([6]; male rat, 15 mg/kg then supplement 5 mg/kg IV): 850 s; duration of induced 'Sleep' ([6]; male rat, diazepam 10 mg/kg IV, single animal): 46 s; duration of induced 'Sleep' ([6]; male rat, diazepam 15 mg/kg IV, single animal): 130 s; duration of induced 'Sleep' ([6]; male rat, diazepam 20 mg/kg IV, single animal): 1700 s; mortality after diazepam injection ([6]; male rat, single dose 20 mg/kg IV, 20 mg/kg): died immediately following injection and FDC; mortality after diazepam injection ([6]; male rat, single dose 20 mg/kg IV, listed as diazepam, 20 mg/kg): death
3 | CCOC(=O)c1ncn2c1CN(C)C(=O)c1cc(F)ccc1-2 [Reference Item] |  |  |  |  |  |  |  |  |  |  | regaining of Righting Reflex (Sleeping Time) [7]: regained their righting reflex very shortly following injection; area of the cage where rats moved or stayed ([8]; Area 1 peripheries (normal behavior), Area 2 central, FIG. 11): stayed in the central area of the cage; locomotor activity ([8]; after regaining righting reflex, males and females): very low and similar to that of the control animals; total distance versus Control group ([8]; female rats, 15 min session, diazepam 20+5 mg/kg IV): No statistical significant difference; mean group time spent in the extent of the activity cage versus controls ([8]; male rats): relatively higher; total distance, mean group values versus Control group ([8]; male rats, 15 min session, diazepam 15+5 mg/kg IV): only one out of the four males exhibited higher values
4 | Cc1ccc(-c2nc3ccc(C)cn3c2CC(=O)N(C)C)cc1 [Zolpidem] | 4.1 ± 0.3 | 71.4 ± 1.9 | 119.5 ± 4.0 | 77.5 ± 3.5 | 62.5 ± 3.6 | 9.3 ± 1.4 | 1.9 ± 1.0 | 1.5 ± 0.4 | 1.5 ± 0.4 | 1.4 ± 0.3 | oral bioavailability [9]: 70%
